Literature values as cited in patent publication US20110159054A1, “NANOPARTICULATE BICALUTAMIDE FORMULATIONS” (Elan Pharma International Ltd., priority 2004, published 2011).

Conditions: 37° C., practically insoluble

In the case of CC(O)(CS(=O)(=O)c1ccc(F)cc1)C(=O)Nc1ccc(C#N)c(C(F)(F)F)c1 (racemic) [Bicalutamide], the solubility in water is listed as 5 mg per 1000 mL.
